Test results published in patent publication US20120190669A1, “OXINDOLE COMPOUNDS” (CYLENE PHARMACEUTICALS, INC., priority 2008, published 2012).

Each compound was assayed on PC-3 human prostatic cancer cells (assay: Alamar Blue cell proliferation assay, PC3). Conditions: Table 5, read-out: AB: PC3 IC50.
Assay type: cell-based
Experimental: (§1) A representative cell-proliferation assay protocol using Alamar Blue dye (stored at 4° C., use 20 ul per well) is described hereafter.
(§2) 96-Well Plate Setup and Compound Treatment
(§3) a. Split and trypsinize cells.
(§4) b. Count cells using hemocytometer.
(§5) c. Plate 4,000-5,000 cells per well in 100 μl of medium and seed into a 96-well plate according to the following plate layout. Add cell culture medium only to wells B10 to B12. Wells B1 to B9 have cells but no compound added.
(§6) d. Add 100 μl of 2× drug dilution to each well in a concentration shown in the plate layout above. At the same time, add 100 μl of media into the control wells (wells 1310 to B12). Total volume is 200 μl/well.
(§7) e. Incubate four (4) days at 37° C., 5% CO2 in a humidified incubator.
(§8) f. Add 20 μl Alamar Blue reagent to each well.
(§9) g. Incubate for four (4) hours at 37° C., 5% CO2 in a humidified incubator.
(§10) h. Record fluorescence at an excitation wavelength of 544 nm and emission wavelength of 590 nm using a microplate reader.
(§11) In the assays, cells are cultured with a test compound for approximately four days, the dye is then added to the cells and fluorescence of […] dye is detected after approximately four hours. Different types of cells can be utilized in the assays (e.g., HCT-116 human colorectal carcinoma cells, PC-3 human prostatic cancer cells and MiaPaca human pancreatic carcinoma cells).

IC50 [µM]	SMILES
> 10	CN1CCCC(NC(=O)c2cccc(-c3coc(/C=C4/C(=O)Nc5ccccc54)c3)c2)C1 (stereo not drawn)
> 10	Cn1cncc1CNC(=O)c1cccc(-c2coc(/C=C3/C(=O)Nc4ccc(F)cc43)c2)c1 [drawing 252]
> 10	Cn1cncc1CNC(=O)c1cccc(-c2coc(/C=C3/C(=O)Nc4ccccc43)c2)c1
> 10	CCN(CC)CCNC(=O)c1cccc(-c2coc(/C=C3/C(=O)Nc4ccccc43)c2)c1

What follows are compounds tested on MDAMB-231 (assay: Alamar Blue cell proliferation assay, MDAMB-231). Conditions: Homo sapiens, MDA-MB-231, Table 3, read-out: AB: MDAMB-231.
Assay type: cell-based
Experimental: as §1, §2, §3, §4, §5, §6, §7, §8, §9, §10, §11

IC50 [µM]	SMILES
> 10	CCN(CC)CCNC(=O)c1ccc(-c2ccc(/C=C3/C(=O)Nc4ccc(Cl)cc43)o2)cc1 [drawing 216]

These compounds were tested on phospho BAD (assay: phospho BAD cell-based data). Conditions: Table 4.

IC50 [µM]	SMILES
1.86	O=C1Nc2ccc(Cl)cc2/C1=C\c1ccc(-c2cccc(C(=O)NCCCn3ccnc3)c2)o1 [drawing 233]
0.444	CN(C)CCNC(=O)c1cccc(-c2ccc(/C=C3/C(=O)Nc4ccc(Cl)cc43)o2)c1 [drawing 232]

Each compound was assayed on MiaPaca human pancreatic carcinoma cells (assay: Alamar Blue cell proliferation assay, MiaPaCa). Conditions: MIA PaCa-2, Table 3, read-out: AB: MiaPaCa.
Assay type: cell-based
Experimental: as §1, §2, §3, §4, §5, §6, §7, §8, §9, §10, §11

IC50 [µM]	SMILES
> 10	CCN(CC)CCNC(=O)c1ccc(-c2ccc(/C=C3/C(=O)Nc4ccc(Cl)cc43)o2)cc1 [drawing 216]

Same assay, conditions: MIA PaCa-2, Table 4, read-out: AB: MiaPaCa

IC50 [µM]	SMILES
0.233	O=C1Nc2ccc(Cl)cc2/C1=C\c1ccc(-c2cccc(C(=O)NCCCn3ccnc3)c2)o1 [drawing 233]
1.94	CN(C)CCNC(=O)c1cccc(-c2ccc(/C=C3/C(=O)Nc4ccc(Cl)cc43)o2)c1 [drawing 232]

Same assay, conditions: MIA PaCa-2, Table 5, read-out: AB: MiaPaCa IC50

IC50 [µM]	SMILES
> 10	O=C1Nc2ccc(F)cc2/C1=C\c1cc(-c2cccc(C(=O)NCc3ccncc3)c2)co1 [drawing 255]
> 10	CN1CCCC(NC(=O)c2cccc(-c3coc(/C=C4/C(=O)Nc5ccccc54)c3)c2)C1 (stereo not drawn)
> 10	Cn1cncc1CNC(=O)c1cccc(-c2coc(/C=C3/C(=O)Nc4ccc(F)cc43)c2)c1 [drawing 252]
> 10	Cn1cncc1CNC(=O)c1cccc(-c2coc(/C=C3/C(=O)Nc4ccccc43)c2)c1
9.23	CCN(CC)CCNC(=O)c1cccc(-c2coc(/C=C3/C(=O)Nc4ccccc43)c2)c1

Each compound was assayed on phospho FLT3 (assay: phospho FLT3 cell-based data). Conditions: Table 4.

IC50 [µM]	SMILES
> 10	O=C1Nc2ccc(Cl)cc2/C1=C\c1ccc(-c2cccc(C(=O)NCCCn3ccnc3)c2)o1 [drawing 233]
5.29	CN(C)CCNC(=O)c1cccc(-c2ccc(/C=C3/C(=O)Nc4ccc(Cl)cc43)o2)c1 [drawing 232]

What follows are compounds tested on K-562 (assay: Alamar Blue cell proliferation assay, K-562). Conditions: Homo sapiens, K562, Table 3, read-out: AB: K-562.
Assay type: cell-based
Experimental: as §1, §2, §3, §4, §5, §6, §7, §8, §9, §10, §11

IC50 [µM]	SMILES
> 10	CCN(CC)CCNC(=O)c1ccc(-c2ccc(/C=C3/C(=O)Nc4ccc(Cl)cc43)o2)cc1 [drawing 216]

Same assay, conditions: Homo sapiens, K562, Table 4, read-out: AB: K-562

IC50 [µM]	SMILES
0.288	O=C1Nc2ccc(Cl)cc2/C1=C\c1ccc(-c2cccc(C(=O)NCCCn3ccnc3)c2)o1 [drawing 233]
0.367	CN(C)CCNC(=O)c1cccc(-c2ccc(/C=C3/C(=O)Nc4ccc(Cl)cc43)o2)c1 [drawing 232]

Same assay, conditions: Homo sapiens, K562, Table 5, read-out: AB: K-562 IC50

IC50 [µM]	SMILES
> 10	O=C1Nc2ccc(F)cc2/C1=C\c1cc(-c2cccc(C(=O)NCc3ccncc3)c2)co1 [drawing 255]
> 10	CN1CCCC(NC(=O)c2cccc(-c3coc(/C=C4/C(=O)Nc5ccccc54)c3)c2)C1 (stereo not drawn)
> 10	Cn1cncc1CNC(=O)c1cccc(-c2coc(/C=C3/C(=O)Nc4ccc(F)cc43)c2)c1 [drawing 252]
> 10	Cn1cncc1CNC(=O)c1cccc(-c2coc(/C=C3/C(=O)Nc4ccccc43)c2)c1
> 10	CCN(CC)CCNC(=O)c1cccc(-c2coc(/C=C3/C(=O)Nc4ccccc43)c2)c1

These compounds were tested on HCT-116 human colorectal carcinoma cells (assay: Alamar Blue cell proliferation assay, HCT-116). Conditions: Table 4, read-out: AB: HCT-116.
Assay type: cell-based
Experimental: as §1, §2, §3, §4, §5, §6, §7, §8, §9, §10, §11

IC50 [µM]	SMILES
0.314	O=C1Nc2ccc(Cl)cc2/C1=C\c1ccc(-c2cccc(C(=O)NCCCn3ccnc3)c2)o1 [drawing 233]
1.19	CN(C)CCNC(=O)c1cccc(-c2ccc(/C=C3/C(=O)Nc4ccc(Cl)cc43)o2)c1 [drawing 232]

Same assay, conditions: Table 5, read-out: AB: HCT-116 IC50

IC50 [µM]	SMILES
> 10	O=C1Nc2ccc(F)cc2/C1=C\c1cc(-c2cccc(C(=O)NCc3ccncc3)c2)co1 [drawing 255]
4.31	CN1CCCC(NC(=O)c2cccc(-c3coc(/C=C4/C(=O)Nc5ccccc54)c3)c2)C1 (stereo not drawn)
> 10	Cn1cncc1CNC(=O)c1cccc(-c2coc(/C=C3/C(=O)Nc4ccc(F)cc43)c2)c1 [drawing 252]
> 10	Cn1cncc1CNC(=O)c1cccc(-c2coc(/C=C3/C(=O)Nc4ccccc43)c2)c1
7.82	CCN(CC)CCNC(=O)c1cccc(-c2coc(/C=C3/C(=O)Nc4ccccc43)c2)c1

What follows are compounds tested against recombinant PIM-1 (Homo sapiens, UniProt P11309) (assay: PIM-1 kinase assay (radiometric, 15 uM ATP, DMSO 4%)). Conditions: Table 3; DMSO 4%; read-out: PIM1: IC50 (DMSO 4%).
Assay type: biochemical

Sequence of recombinant PIM-1 (P11309 whole entry): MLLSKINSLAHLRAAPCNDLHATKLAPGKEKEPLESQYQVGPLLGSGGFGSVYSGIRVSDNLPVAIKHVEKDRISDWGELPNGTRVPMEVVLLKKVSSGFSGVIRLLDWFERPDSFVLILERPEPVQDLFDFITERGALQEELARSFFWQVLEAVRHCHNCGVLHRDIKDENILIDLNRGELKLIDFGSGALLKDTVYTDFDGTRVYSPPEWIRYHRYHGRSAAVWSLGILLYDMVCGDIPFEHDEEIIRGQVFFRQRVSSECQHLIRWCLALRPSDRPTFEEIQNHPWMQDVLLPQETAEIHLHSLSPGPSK

IC50 [µM]	SMILES
< 1	CCN(CC)CCNC(=O)c1ccc(-c2ccc(/C=C3/C(=O)Nc4ccc(Cl)cc43)o2)cc1 [drawing 216]

Same assay, conditions: Table 4; 15 um ATP; read-out: PIM1: IC50 (15 um ATP)

IC50 [µM]	SMILES
0.376	O=C1Nc2ccc(Cl)cc2/C1=C\c1ccc(-c2cccc(C(=O)NCCCn3ccnc3)c2)o1 [drawing 233]
0.289	CN(C)CCNC(=O)c1cccc(-c2ccc(/C=C3/C(=O)Nc4ccc(Cl)cc43)o2)c1 [drawing 232]

Same assay, conditions: Table 5; compound at 500 nM; read-out: PIM1: % inh 500 nM

inhibition at 0.5 µM [%]	SMILES
-19.1	O=C1Nc2ccc(F)cc2/C1=C\c1cc(-c2cccc(C(=O)NCc3ccncc3)c2)co1 [drawing 255]
-22.7	CN1CCCC(NC(=O)c2cccc(-c3coc(/C=C4/C(=O)Nc5ccccc54)c3)c2)C1 (stereo not drawn)
12.7	Cn1cncc1CNC(=O)c1cccc(-c2coc(/C=C3/C(=O)Nc4ccc(F)cc43)c2)c1 [drawing 252]
-14.6	Cn1cncc1CNC(=O)c1cccc(-c2coc(/C=C3/C(=O)Nc4ccccc43)c2)c1
-10.9	CCN(CC)CCNC(=O)c1cccc(-c2coc(/C=C3/C(=O)Nc4ccccc43)c2)c1

What follows are compounds tested on MV-4-11 (assay: Alamar Blue cell proliferation assay, MV-4-11). Conditions: Homo sapiens, MV4-11, Table 3, read-out: AB: MV-4-11.
Assay type: cell-based
Experimental: as §1, §2, §3, §4, §5, §6, §7, §8, §9, §10, §11

IC50 [µM]	SMILES
> 1	CCN(CC)CCNC(=O)c1ccc(-c2ccc(/C=C3/C(=O)Nc4ccc(Cl)cc43)o2)cc1 [drawing 216]

Same assay, conditions: Homo sapiens, MV4-11, Table 4, read-out: AB: MV-4-11

IC50 [µM]	SMILES
0.067	O=C1Nc2ccc(Cl)cc2/C1=C\c1ccc(-c2cccc(C(=O)NCCCn3ccnc3)c2)o1 [drawing 233]
2.99	CN(C)CCNC(=O)c1cccc(-c2ccc(/C=C3/C(=O)Nc4ccc(Cl)cc43)o2)c1 [drawing 232]

Same assay, conditions: Homo sapiens, MV4-11, Table 5, read-out: AB: MV-4-11 IC50

IC50 [µM]	SMILES
1.57	O=C1Nc2ccc(F)cc2/C1=C\c1cc(-c2cccc(C(=O)NCc3ccncc3)c2)co1 [drawing 255]
0.315	CN1CCCC(NC(=O)c2cccc(-c3coc(/C=C4/C(=O)Nc5ccccc54)c3)c2)C1 (stereo not drawn)
1.38	Cn1cncc1CNC(=O)c1cccc(-c2coc(/C=C3/C(=O)Nc4ccc(F)cc43)c2)c1 [drawing 252]
0.998	Cn1cncc1CNC(=O)c1cccc(-c2coc(/C=C3/C(=O)Nc4ccccc43)c2)c1
0.761	CCN(CC)CCNC(=O)c1cccc(-c2coc(/C=C3/C(=O)Nc4ccccc43)c2)c1
